The values below come from US8791106B2, “Fused ring pyridine compound” (Astellas Pharma Inc., priority 2010, dated 2014).

One assay concerns the target T1, human CB2 (Homo sapiens, UniProt P34972).
T1 construct: expressed in transfected cells; host or cells: CHO cells
Briefly: Test on inhibition of human CB2-mediated cyclic AMP (cAMP) production. In kind it is cell-based. The following applies: 30 nM test substance; forskolin 0.5 μM; human CB2-expressing CHO cells; 30 minutes at room temperature; read-out: Inh(%): inhibition rate of cAMP increase. The procedure: This test was performed using CHO cells caused to express human CB2 (“Molecular Pharmacology”, 1995, Vol. 48, pp 443-450).
A human CB2-expressing CHO cell (2.5×10^3/mL) suspension and an assay medium supplemented with a test substance and forskolin (final concentration of 0.5 μM) were mixed together in equal amounts, followed by incubation for 30 minutes at room temperature, and then a 0.6% Triton X-100 solution was added thereto, thereby obtaining a cell lysate. A cAMP concentration in the cell lysate was measured using a cAMP kit (manufactured by Cisbio International). The assay medium was obtained by supplementing α-MEM manufactured by Invitrogen with 0.02% CHAPS, 1 mM isobutylmethylxanthine, and 0.5 mg/mL bovine serum albumin. The cAMP concentration in a forskolin-free cell suspension was regarded as 0% of increase in cAMP, and the cAMP concentration in a forskolin-added cell suspension was regarded as a 100% increase in cAMP, thereby allowing calculation of the inhibition rate of intracellular cAMP increase in 30 nM test substance.
In the table, Ex represents the example number of a test compound described later, and Inh represents inhibition rate of cAMP increase.

Assay [1] relates to adjuvant-induced arthritis rat. Briefly: Effect of inhibition of hind paw weight distribution in adjuvant-induced arthritis rat. Format: in vivo. The following applies: oral, female Lewis rats, day after adjuvant, Vehicle group 0%, Normal group 100%, read-out: Inhibition rate (%) of hind paw load difference. The procedure: For this test, female Lewis rats (7- to 8-weeks-old) were used. 50 μL of killed Mycobacterium tuberculosis H37 Ra (manufactured by DIFCO MICROBIOLOGY) suspended in liquid paraffin at a concentration of 10 mg/mL was subcutaneously administered to the right hind footpad. On the next day, the test substance was administered orally, and after some time, the load on the left and right hind paws was measured using an Incapacitance Tester (manufactured by Linton Instruments), thereby calculating a difference in the load between left and right. The load difference of a Vehicle-administered group was regarded as an inhibition rate of 0%, and the load difference of a Normal group was regarded as an inhibition rate of 100%, thereby allowing calculation of the inhibition rate of the test substance.
In the table, Ex represents an example number of a test compound described later, and values in the parenthesis indicates a dose.

T1 sequence (P34972 whole entry): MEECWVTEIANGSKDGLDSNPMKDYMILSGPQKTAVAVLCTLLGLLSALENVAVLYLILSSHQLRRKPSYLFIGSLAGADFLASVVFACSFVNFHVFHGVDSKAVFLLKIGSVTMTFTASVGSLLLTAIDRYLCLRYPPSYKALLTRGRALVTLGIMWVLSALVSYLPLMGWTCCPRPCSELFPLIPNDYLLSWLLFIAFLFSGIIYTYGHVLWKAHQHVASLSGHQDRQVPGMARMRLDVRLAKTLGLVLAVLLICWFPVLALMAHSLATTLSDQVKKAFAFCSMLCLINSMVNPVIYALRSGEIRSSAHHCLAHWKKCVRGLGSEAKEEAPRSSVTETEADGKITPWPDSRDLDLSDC

Consider `O=C(c1ncc(Nc2cccc(Cl)c2)c2c1CCCC2)N1CCS(=O)(=O)CC1` [Example 10], for which the inhibition (in general, the drop in the measured response relative to a control, in per cent) at 0.03 µM at human CB2 worked out at 73%. Also, the inhibition in vivo at 0.1 mg/kg in assay [1] came to 30%.
For the molecule `O=C(c1cnc(N[C@@H]2C[C@H]3CC[C@@H]2C3)c2c1CCCC2)N1CCOCC1` [Example 11], on human CB2, the inhibition at 0.03 µM amounted to 77%.
For the molecule `O=C(c1cnc(Nc2cccc(OC(F)(F)F)c2)c2c1CCCC2)N1CCOCC1` [Example 16], the inhibition at 0.03 µM at human CB2 was found to be 87%. The inhibition in vivo at 0.1 mg/kg in assay [1] came to 29%.
The corresponding values for `O=C(c1cnc(Nc2cccc(Cl)c2)c2c1CCCC2)N1CCS(=O)(=O)CC1` [Example 30] are 82% and 17%.
On to `O=C(c1ncc(Nc2cccc(C(F)(F)F)c2)c2c1CCCC2)N1CCS(=O)(=O)CC1` [Example 36], for which the inhibition at 0.03 µM at human CB2 is 82%. Moreover, in assay [1], the inhibition in vivo at 0.1 mg/kg was determined as 49%.
On to `CC1(C)CCCC(Nc2ncc(C(=O)N3CCS(=O)(=O)CC3)c3c2CCCC3)C1` (stereo not shown) [Example 38], for which, at human CB2, the inhibition at 0.03 µM worked out at 77%.
In the case of `O=C(c1cnc(Oc2cccc(C(F)(F)F)c2)c2c1CCCC2)N1CCS(=O)(=O)CC1` [Example 52], the inhibition at 0.03 µM at human CB2 was 96%.
The same measure, in the same setting: then `O=C(c1ncc(Nc2ccc(F)c(Cl)c2)c2c1C1CCC2C1)N1CCS(=O)(=O)CC1` (stereo not shown) [Example 59], with 93%; and `O=C(c1ncc(Nc2cccc(Cl)c2)c2c1C1CCC2C1)N1CCS(=O)(=O)CC1` (stereo not shown) [Example 94-1], with 97%.
For `O=C(c1ncc(Nc2cccc(Cl)c2)c2c1C1CCC2CC1)N1CCS(=O)(=O)CC1` [Example 98], the inhibition at 0.03 µM at human CB2 is 96%.
Consider `O=C(c1cnc(Nc2cccc(Cl)c2)c2c1C1CCC2CC1)N1CCS(=O)(=O)CC1` [Example 101], for which the inhibition at 0.03 µM on human CB2 worked out at 99%.
Still for that read-out and setting: then `O=C(c1cnc(Nc2cccc(C(F)(F)F)c2)c2c1C1CCC2CC1)N1CCS(=O)(=O)CC1` [Example 112], with 103%; and `O=C(c1cnc(Nc2cccc(Cl)c2)c2c1C1CCC2C1)N1CCS(=O)(=O)CC1` (stereo not shown) [Example 117-2], with 100%.
Consider `O=C(c1cnc(Nc2ccc(F)c(Cl)c2)c2c1C1CCC2C1)N1CCS(=O)(=O)CC1` (stereo not shown) [Example 119-2], for which, on human CB2, the inhibition at 0.03 µM is 91%. Further, in assay [1], the inhibition in vivo at 0.3 mg/kg came out at 49%.
As for `O=C(c1cnc(Nc2cccc(OC(F)(F)F)c2)c2c1C1CCC2C1)N1CCS(=O)(=O)CC1` (stereo not shown) [Example 120-2], the inhibition at 0.03 µM at human CB2 amounted to 105%. For the same molecule, the inhibition in vivo at 0.3 mg/kg in assay [1] stood at 34%.
Take `O=C(c1ncc(Nc2cccc(OC(F)(F)F)c2)c2c1C1CCC2CC1)N1CCS(=O)(=O)CC1` [Example 125]: the inhibition at 0.03 µM at human CB2 is 100%.
`O=C(c1ncc(Nc2ccc(F)c(C(F)(F)F)c2)c2c1C1CCC2CC1)N1CCS(=O)(=O)CC1` [Example 129]: the inhibition at 0.03 µM on human CB2 came to 95%.
In the case of `O=C(c1cnc(Nc2ccc(F)c(C(F)(F)F)c2)c2c1C1CCC2C1)N1CCS(=O)(=O)CC1` (stereo not shown) [Example 133-2], the inhibition at 0.03 µM at human CB2 stood at 90%. Also, the inhibition in vivo at 0.3 mg/kg in assay [1] came out at 39%.
As for `O=C(c1cnc(Nc2ccc(F)c(F)c2)c2c1C1CCC2CC1)N1CCS(=O)(=O)CC1` [Example 138], the inhibition at 0.03 µM on human CB2 was 97%. The inhibition in vivo at 0.3 mg/kg in assay [1] is 54%.
On to `Cc1cccc(Nc2cnc(C(=O)N3CCS(=O)(=O)CC3)c3c2C2CCC3CC2)c1F` [Example 164], for which the inhibition at 0.03 µM on human CB2 is 119%.
Consider `Cc1ccc(F)c(Nc2cnc(C(=O)N3CCS(=O)(=O)CC3)c3c2C2CCC3CC2)c1` [Example 165], for which the inhibition at 0.03 µM at human CB2 worked out at 111%.
In the case of `Cc1ccc(Nc2cnc(C(=O)N3CCS(=O)(=O)CC3)c3c2C2CCC3CC2)cc1Cl` [Example 167], the inhibition at 0.03 µM on human CB2 amounted to 115%.
Regarding `O=C(c1cnc(Nc2cc(F)cc(Cl)c2)c2c1C1CCC2CC1)N1CCS(=O)(=O)CC1` [Example 179], on human CB2, the inhibition at 0.03 µM was 100%.
